What was measured:
[1] = tested on: S. typhimurium ATCC 14028; test: micro-dilution broth method (MIC, MBC); type: cell-based, Salmonella Typhimurium
B. subtilis ATCC 6633 = test: micro-dilution broth method (MIC, MBC); type: cell-based, Bacillus subtilis
F. nucleatum ATCC 25586 = test: micro-dilution broth method (MIC, MBC); type: cell-based, Fusobacterium nucleatum
H. pylori ATCC 43504 = test: micro-dilution broth method (MIC, MBC); type: cell-based
B. cereus ATCC 10876 = test: micro-dilution broth method (MIC, MBC); type: cell-based, Bacillus cereus
B. fragilis ATCC 10240 = test: micro-dilution broth method (MIC, MBC); type: cell-based, Bacteroides fragilis
HepG2 cells [2] = test: NRU assay (lysosomal activity), 72 h exposure; type: cell-based, human; settings: Figure 6
Experimental: (§1) The human hepatoma (HepG2) and colorectal adenocarcinoma (Caco-2) cells were purchased from the American Type Culture Collection: ATCC HB-8065 and ATCC HTB-37, respectively. These cells were cultured in Minimum Essential Medium Eagle (MEME) (ATCC). The murine fibroblasts cell line (Balb/c 3T3 clone A31) (gift from the Department of Swine Diseases of the National Veterinary Research Institute in Pulawy) was cultured in Dulbecco’s Modified Eagle Medium (DMEM) (ATCC). The media were supplemented with 10% BCS (Balb/c 3T3), 10% FBS (HepG2), 20% FBS (Caco-2), 1% L-glutamine, 1% antibiotic solution. The cells were maintained in 75 cm^2 cell culture flasks (NUNC) in a humidified incubator at 37 °C in an atmosphere of 5% CO2. The medium was refreshed every two or three days, and the cells were trypsinized by 0.25% trypsin–0.02% EDTA after reaching 70–80% confluence. Single cell suspensions were prepared and adjusted to a density of 2 × 10^5 cell/mL^−1 (HepG2), 1 × 10^5 cell/mL^−1 (Caco-2) and 5 × 10^4 cell/mL^−1 (Balb/c 3T3). The cell suspension was transferred to 96-well plates (100 µL/well) and incubated for 24 h before the exposure to the studied compounds. Stock solutions of ligands and metal complexes were prepared in sterile water and diluted with culture medium to obtain a concentration range from 0.1 to 10 µM. The final concentration of sterile water was 0.1% in the medium. […] As a negative control, cultured cells were grown in the absence of studied compounds. Each concentration was tested in six replicates in three independent experiments. Cytotoxicity was assessed after 72 h of exposure of the cells to compounds. The medium was not changed during the incubation time.
This method is based on staining living cells with neutral red, which readily diffuses through the plasma membrane and accumulates in lysosomes. […] After 10 min of shaking, the absorbance of the dissolved NR was measured using a Synergy HTX multi-mode reader (BioTek® Instruments Inc., Winooski, VT, USA) at 540 nm using a blank as a reference. Cytotoxicity was expressed as a percentage of the negative control. […]

M. luteus ATCC 10240 = test: micro-dilution broth method (MIC, MBC); type: cell-based, Micrococcus luteus
HepG2 cells [3] = test: TPC assay (total protein content), 72 h exposure; type: cell-based, human; settings: Figure 6
Experimental: as §1
This assay is based upon staining the total cellular protein (proliferation). After the incubation, the medium containing the drug was removed, and 100 µL Coomassie brilliant blue R-250 dye was added to each well. The plate was shaken for 10 min. Then, the stain was removed and the cells were rinsed twice with 100 µL of washing solution (glacial acetic acid/ethanol/water, 5:10:85, v:v:v). After that, 100 µL of the desorbing solution (1 M potassium acetate) was added, and plates were shaken again for 10 min. The absorbance was measured at 595 nm in a microplate reader Synergy HTX multi-mode reader (BioTek® Instruments Inc., Winooski, VT, USA) using a blank as a reference. Cytotoxicity was expressed as a percentage of the negative control.
The study was performed in three independent experiments. The obtained results are presented as mean values ± SD (standard deviation). The assessment of the cytotoxicity data used a one-way analysis of variance (ANOVA) followed by Dunnett’s post hoc test, which was applied to determine significance relative to the negative control.

V. parvula ATCC 10790 = test: micro-dilution broth method (MIC, MBC); type: cell-based, Veillonella parvula
E. coli ATCC 25922 = test: micro-dilution broth method (MIC, MBC); type: cell-based, Escherichia coli
P. acnes ATCC 11827 = test: micro-dilution broth method (MIC, MBC); type: cell-based, Propionibacterium acnes
S. aureus ATCC 25923 = test: micro-dilution broth method (MIC, MBC); type: cell-based, Staphylococcus aureus
A. israeli ATCC 10049 = test: micro-dilution broth method (MIC, MBC); type: cell-based, Actinomyces israelii
[4] = S. typhimurium ATCC 14028, value in brackets
[5] = B. subtilis ATCC 6633, value in brackets
[6] = F. nucleatum ATCC 25586, value in brackets
[7] = H. pylori ATCC 43504, value in brackets
[8] = B. cereus ATCC 10876, value in brackets
[9] = B. fragilis ATCC 10240, value in brackets
[10] = M. luteus ATCC 10240, value in brackets
[11] = V. parvula ATCC 10790, value in brackets
[12] = E. coli ATCC 25922, value in brackets
[13] = P. acnes ATCC 11827, value in brackets
[14] = S. aureus ATCC 25923, value in brackets
[15] = A. israeli ATCC 10049, value in brackets

Cc1ncc([N+](=O)[O-])n1CCO.Cc1ncc([N+](=O)[O-])n1CCO.Cc1ncc([N+](=O)[O-])n1CCO.Cc1ncc([N+](=O)[O-])n1CCO.O=S(=O)([O-])[O-].[Ag+].[Ag+] [[Ag(MTZ)2]2SO4]
MBC ([1]; S. typhimurium ATCC 14028): 62.5 mg/L
MIC ([1]; S. typhimurium ATCC 14028): 15.6 mg/L
MBC [1, 4]: 0.06 µM/mL
MIC [1, 4]: 0.014 µM/mL
MBC (B. subtilis ATCC 6633; B. subtilis ATCC 6633): 15.6 mg/L
MIC (B. subtilis ATCC 6633; B. subtilis ATCC 6633): 15.6 mg/L
MBC (B. subtilis ATCC 6633; [5]): 0.014 µM/mL
MIC (B. subtilis ATCC 6633; [5]): 0.014 µM/mL
MBC (F. nucleatum ATCC 25586; F. nucleatum ATCC 25586): 0.49 mg/L
MIC (F. nucleatum ATCC 25586; F. nucleatum ATCC 25586): 0.49 mg/L
MBC (F. nucleatum ATCC 25586; [6]): 0.0004 µM/mL
MIC (F. nucleatum ATCC 25586; [6]): 0.0004 µM/mL
MBC (H. pylori ATCC 43504; H. pylori ATCC 43504): 31.3 mg/L
MIC (H. pylori ATCC 43504; H. pylori ATCC 43504): 7.8 mg/L
MBC (H. pylori ATCC 43504; [7]): 0.03 µM/mL
MIC (H. pylori ATCC 43504; [7]): 0.008 µM/mL
MIC (B. cereus ATCC 10876; B. cereus ATCC 10876): 62.5 mg/L
MBC (B. cereus ATCC 10876; [8]): 0.12 µM/mL
MIC (B. cereus ATCC 10876; [8]): 0.06 µM/mL
MBC (B. fragilis ATCC 10240; B. fragilis ATCC 10240): 0.98 mg/L
MIC (B. fragilis ATCC 10240; B. fragilis ATCC 10240): 0.24 mg/L
MBC (B. fragilis ATCC 10240; [9]): 0.0009 µM/mL
MIC (B. fragilis ATCC 10240; [9]): 0.0002 µM/mL
lowest concentration with significant (p ≤ 0.05) effect (HepG2 cells [2]): 5.0 µM
MIC (M. luteus ATCC 10240; M. luteus ATCC 10240): 7.8 mg/L
MBC (M. luteus ATCC 10240; [10]): 0.12 µM/mL
MIC (M. luteus ATCC 10240; [10]): 0.007 µM/mL
lowest concentration with significant (p ≤ 0.05) effect (HepG2 cells [3]): 5.0 µM
MBC (V. parvula ATCC 10790; V. parvula ATCC 10790): 3.9 mg/L
MIC (V. parvula ATCC 10790; V. parvula ATCC 10790): 3.9 mg/L
MBC (V. parvula ATCC 10790; [11]): 0.004 µM/mL
MIC (V. parvula ATCC 10790; [11]): 0.004 µM/mL
MBC (E. coli ATCC 25922; E. coli ATCC 25922): 31.3 mg/L
MIC (E. coli ATCC 25922; E. coli ATCC 25922): 15.6 mg/L
MBC (E. coli ATCC 25922; [12]): 0.03 µM/mL
MIC (E. coli ATCC 25922; [12]): 0.014 µM/mL
MBC (P. acnes ATCC 11827; P. acnes ATCC 11827): 500 mg/L
MBC (P. acnes ATCC 11827; [13]): 0.46 µM/mL
MIC (P. acnes ATCC 11827; [13]): 0.12 µM/mL
MBC (S. aureus ATCC 25923; S. aureus ATCC 25923): 15.6 mg/L
MIC (S. aureus ATCC 25923; S. aureus ATCC 25923): 15.6 mg/L
MBC (S. aureus ATCC 25923; [14]): 0.014 µM/mL
MIC (S. aureus ATCC 25923; [14]): 0.014 µM/mL
MBC (A. israeli ATCC 10049; A. israeli ATCC 10049): 15.6 mg/L
MIC (A. israeli ATCC 10049; A. israeli ATCC 10049): 7.8 mg/L
MBC (A. israeli ATCC 10049; [15]): 0.014 µM/mL
MIC (A. israeli ATCC 10049; [15]): 0.007 µM/mL

Reference: article PMC8869984, “Multifunctional Silver(I) Complexes with Metronidazole Drug Reveal Antimicrobial Properties and Antitumor Activity against Human Hepatoma and Colorectal Adenocarcinoma Cells” (Cancers, 2022)
